Measured values as given in patent publication US20100028849A1, “NOVEL PROCESS FOR DEVITALIZED/ACELLULAR TISSUE FOR TRANSPLANTATION” (priority 2006, published 2010).

Columns and labels:
S. epidermidis = test: antimicrobial ability of ozone in aqueous solution, plating on agar (CFU); assay type: cell-based; conditions: 5-10 ppm ozone in sterile water; for Final (CFU/mL): initial inoculum 2.1 × 10^8 CFU/mL
Description: S. epidermidis was subjected to 5-10 ppm ozone in sterile water, followed by plating the organisms onto agar plates and placing the plates in a 37° C. incubator.

[1] = system: human skin (epidermis and dermis intact) tissue cells; test: alamarBlue viability assay of human skin exposed to ozone; assay type: cell-based; conditions: 60 minutes of ozone exposure in sterile normal saline with agitation; 5-20 ppm, 4 C to 25 C
Source text: This example measured the effect of ozone on human skin. Human skin (epidermis and dermis intact) was exposed to ozone for various lengths of time. Ozone was pumped through an aqueous solution (sterile normal saline) obtaining levels between 5 and 20 ppm at temperatures between 4 C and 25 C. An alamarBlue™ viability assay, which is supplied by Invitrogen Corporation of Carlsbad, Calif., was used to quantify viability of the tissue cells. The alamarBlue™ dye is reduced by metabolic intermediates within a cell; reduction of the dye is then measured spectrophotometrically.
To perform the alamarBlue™ assay, human skin was sectioned into 6 mm diameter discs and placed individually into wells of a 24-well tissue culture plate. To each sample, 10% alamarBlue™ reagent in RPMI-1640 was added. The plate was incubated at 37° C. on an orbital shaker for 4 hours. Each well was then sampled in triplicate to a 96-well assay plate. The absorbance of the plate was measured at 600 nm and 570 nm, where the […]. The absorbencies were then used to calculate the percent reduction of alamarBlue™ dye, as follows: […]

In the case of `O=[O+][O-]` [Ozone, ozone], the “Log Reduction” value (S. epidermidis; 2.5 min exposed to ozone) is reported as 8 log, the “Final (CFU/mL)” value (S. epidermidis; 2.5 min exposed to ozone) is reported as 0 CFU/mL and the “Log Reduction” value (S. epidermidis; 5 min exposed to ozone) is reported as 8 log. For the same compound, the “Final (CFU/mL)” value (S. epidermidis; 5 min exposed to ozone) was 0 CFU/mL, the “Log Reduction” value (S. epidermidis; 7.5 min exposed to ozone) was 8 log and the “Final (CFU/mL)” value (S. epidermidis; 7.5 min exposed to ozone) was 0 CFU/mL. The “Log Reduction” value (S. epidermidis; 10 min exposed to ozone) was 8 log, the “Final (CFU/mL)” value (S. epidermidis; 10 min exposed to ozone) was 0 CFU/mL and the “Log Reduction” value (S. epidermidis; 20 min exposed to ozone) was 8 log. For the same compound, the “Final (CFU/mL)” value (S. epidermidis; 20 min exposed to ozone) was 0 CFU/mL, the “log reduction in colony forming units (CFU)” value (S. epidermidis; at 2.5 minutes or longer, total kill of microbes) was 8 log and the “viability of the tissue cells (percent reduction of alamarBlue dye)” value [1] was “death of the cells within the skin”.
